{"source": "paper PMC6300691", "about": "“Enhancement of Heat Stability and Kinetic Parameters of the Maize Endosperm ADP-Glucose Pyrophosphorylase by Mutagenesis of Amino Acids in the Small Subunit With High B Factors” (Frontiers in Plant Science, 2018)", "assay_type_in_all_cases": "biochemical", "key": {"SH2-E/BT2-BF": {"molecular_target": "T1, SH2-E/BT2-BF (Zea mays, UniProt P55241+Q947C0, E123G/N131R/T142F/A160T/Q261S/R331K/A396S/K402R/V416I/C424V/S444A)", "T1 construct": "SH2-E co-expressed with BT2-BF, E. coli, purified", "T1 sequence (Q947C0 1-475 E123G/R331K/K402R)": "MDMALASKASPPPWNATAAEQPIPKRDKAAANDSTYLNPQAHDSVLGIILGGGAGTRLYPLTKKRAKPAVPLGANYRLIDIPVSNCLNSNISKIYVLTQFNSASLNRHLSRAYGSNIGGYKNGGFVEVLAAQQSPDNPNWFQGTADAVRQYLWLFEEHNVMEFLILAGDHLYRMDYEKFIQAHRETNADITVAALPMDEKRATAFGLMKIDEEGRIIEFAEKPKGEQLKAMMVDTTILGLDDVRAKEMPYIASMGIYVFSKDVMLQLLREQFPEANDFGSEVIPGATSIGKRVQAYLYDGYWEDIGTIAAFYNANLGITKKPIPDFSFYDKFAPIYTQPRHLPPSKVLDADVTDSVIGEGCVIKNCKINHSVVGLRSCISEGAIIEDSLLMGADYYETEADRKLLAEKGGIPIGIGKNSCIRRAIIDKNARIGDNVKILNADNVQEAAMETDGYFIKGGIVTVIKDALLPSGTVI", "T1 sequence (P55241 46-516 N131R/T142F/A160T/Q261S/A396S/V416I/C424V/S444A)": "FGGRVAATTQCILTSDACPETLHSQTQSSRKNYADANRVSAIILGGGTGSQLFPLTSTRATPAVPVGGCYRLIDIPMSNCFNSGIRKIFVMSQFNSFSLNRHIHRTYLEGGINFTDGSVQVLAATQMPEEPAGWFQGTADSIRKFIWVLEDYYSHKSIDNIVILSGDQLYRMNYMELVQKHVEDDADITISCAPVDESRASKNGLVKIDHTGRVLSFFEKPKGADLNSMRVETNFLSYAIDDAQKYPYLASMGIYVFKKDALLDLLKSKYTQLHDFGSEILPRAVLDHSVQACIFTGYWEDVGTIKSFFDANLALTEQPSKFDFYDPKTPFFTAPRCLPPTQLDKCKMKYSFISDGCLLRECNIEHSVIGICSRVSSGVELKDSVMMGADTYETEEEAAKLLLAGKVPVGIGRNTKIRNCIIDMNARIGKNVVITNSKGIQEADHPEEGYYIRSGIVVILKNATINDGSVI", "assay": "Activation constant from initial rates with varied 3-PGA (0-1 mM) at 2 mM ATP and 2 mM G-1-P, pH 7.4, 15 mM MgCl2, fitted to V = Vmin + Vmax*X/(Ka + X).", "text": "(§1) All reactions were developed as above."}, "K403E": {"molecular_target": "T2, K403E (Zea mays, UniProt P55241+Q947C0, K403E)", "T2 construct": "BT2 variant with wild type SH2, E. coli, purified", "T2 sequence (Q947C0 1-475 K403E)": "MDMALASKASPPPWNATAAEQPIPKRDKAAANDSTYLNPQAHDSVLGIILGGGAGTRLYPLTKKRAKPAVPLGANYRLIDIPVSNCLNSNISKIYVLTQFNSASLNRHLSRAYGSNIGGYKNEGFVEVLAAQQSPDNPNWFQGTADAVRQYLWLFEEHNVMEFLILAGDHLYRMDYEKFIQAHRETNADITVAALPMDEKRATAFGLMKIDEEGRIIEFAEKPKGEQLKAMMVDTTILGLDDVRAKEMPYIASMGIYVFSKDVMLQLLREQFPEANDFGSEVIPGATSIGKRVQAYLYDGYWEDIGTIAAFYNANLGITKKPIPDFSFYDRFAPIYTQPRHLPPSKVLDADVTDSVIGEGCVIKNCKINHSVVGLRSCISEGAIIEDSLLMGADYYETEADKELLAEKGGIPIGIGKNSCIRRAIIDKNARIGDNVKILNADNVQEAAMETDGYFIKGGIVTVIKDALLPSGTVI", "T2 sequence (P55241 46-516)": "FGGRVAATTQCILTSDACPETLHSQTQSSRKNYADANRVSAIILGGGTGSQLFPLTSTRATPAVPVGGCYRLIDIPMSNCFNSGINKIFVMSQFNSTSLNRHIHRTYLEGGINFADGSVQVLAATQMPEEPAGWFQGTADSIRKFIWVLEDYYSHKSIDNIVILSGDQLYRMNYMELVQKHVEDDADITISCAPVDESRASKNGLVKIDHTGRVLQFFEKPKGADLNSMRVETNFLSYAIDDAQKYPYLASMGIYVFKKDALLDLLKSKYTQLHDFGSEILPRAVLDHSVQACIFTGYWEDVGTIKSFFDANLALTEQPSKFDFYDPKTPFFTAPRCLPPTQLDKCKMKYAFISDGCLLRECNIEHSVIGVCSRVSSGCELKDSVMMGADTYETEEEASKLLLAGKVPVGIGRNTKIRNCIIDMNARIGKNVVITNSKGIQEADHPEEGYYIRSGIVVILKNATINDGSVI", "assay": "Activation constant from initial rates with varied 3-PGA (0-1 mM) at 2 mM ATP and 2 mM G-1-P, pH 7.4, 15 mM MgCl2, fitted to V = Vmin + Vmax*X/(Ka + X).", "text": "as §1"}, "R331P": {"molecular_target": "T3, R331P (Zea mays, UniProt P55241+Q947C0, R331P)", "T3 construct": "BT2 variant with wild type SH2, E. coli, purified", "T3 sequence (Q947C0 1-475 R331P)": "as the sequence (Q947C0 1-475 K403E) above, with R331P, E403K counted along it", "T3 sequence (P55241 46-516)": "as the sequence (P55241 46-516) above", "assay": "Activation constant from initial rates with varied 3-PGA (0-1 mM) at 2 mM ATP and 2 mM G-1-P, pH 7.4, 15 mM MgCl2, fitted to V = Vmin + Vmax*X/(Ka + X).", "text": "as §1"}, "K403L": {"molecular_target": "T4, K403L (Zea mays, UniProt P55241+Q947C0, K403L)", "T4 construct": "BT2 variant with wild type SH2, E. coli, purified", "T4 sequence (Q947C0 1-475 K403L)": "as the sequence (Q947C0 1-475 K403E) above, with E403L counted along it", "T4 sequence (P55241 46-516)": "as the sequence (P55241 46-516) above", "assay": "Activation constant from initial rates with varied 3-PGA (0-1 mM) at 2 mM ATP and 2 mM G-1-P, pH 7.4, 15 mM MgCl2, fitted to V = Vmin + Vmax*X/(Ka + X).", "text": "as §1"}, "SH2-ISM/BT2-BF [1]": {"molecular_target": "T5, SH2-ISM/BT2-BF (Zea mays, UniProt P55241+Q947C0, Q96G/E123G/D161G/R331K/K402R/A443R)", "T5 construct": "SH2-ISM co-expressed with BT2-BF, E. coli, purified", "T5 sequence (Q947C0 1-475 E123G/R331K/K402R)": "T1 sequence (Q947C0 1-475 E123G/R331K/K402R)", "T5 sequence (P55241 46-516 Q96G/D161G/A443R)": "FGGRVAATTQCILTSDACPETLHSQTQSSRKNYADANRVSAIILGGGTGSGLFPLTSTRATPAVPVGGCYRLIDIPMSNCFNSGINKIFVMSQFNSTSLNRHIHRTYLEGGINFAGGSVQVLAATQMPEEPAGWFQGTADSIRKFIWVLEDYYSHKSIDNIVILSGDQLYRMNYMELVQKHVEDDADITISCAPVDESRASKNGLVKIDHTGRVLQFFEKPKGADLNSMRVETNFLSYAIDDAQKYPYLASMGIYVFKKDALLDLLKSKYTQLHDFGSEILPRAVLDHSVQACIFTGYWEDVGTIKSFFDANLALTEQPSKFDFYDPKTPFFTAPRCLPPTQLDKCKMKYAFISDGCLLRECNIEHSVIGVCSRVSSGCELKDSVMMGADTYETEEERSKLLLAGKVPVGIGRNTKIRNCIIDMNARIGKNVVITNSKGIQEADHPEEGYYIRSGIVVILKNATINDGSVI", "assay": "Activation constant from initial rates with varied 3-PGA (0-1 mM) at 2 mM ATP and 2 mM G-1-P, pH 7.4, 15 mM MgCl2, fitted to V = Vmin + Vmax*X/(Ka + X).", "text": "as §1"}, "SH2-ISM": {"molecular_target": "T6, SH2-ISM (Zea mays, UniProt P55241+Q947C0, Q96G/D161G/A443R)", "T6 construct": "SH2-ISM with wild type BT2 (SH2-ISM/BT2-WT), E. coli, purified", "T6 sequence (Q947C0 1-475)": "T1 sequence (Q947C0 1-475 E123G/R331K/K402R) with G123E, K331R, R402K", "T6 sequence (P55241 46-516 Q96G/D161G/A443R)": "T5 sequence (P55241 46-516 Q96G/D161G/A443R)", "assay": "Activation constant from initial rates with varied 3-PGA (0-1 mM) at 2 mM ATP and 2 mM G-1-P, pH 7.4, 15 mM MgCl2, fitted to V = Vmin + Vmax*X/(Ka + X).", "text": "as §1"}, "L404E": {"molecular_target": "T7, L404E (Zea mays, UniProt P55241+Q947C0, L404E)", "T7 construct": "BT2 variant with wild type SH2, E. coli, purified", "T7 sequence (Q947C0 1-475 L404E)": "as the sequence (Q947C0 1-475 K403E) above, with E403K, L404E counted along it", "T7 sequence (P55241 46-516, stated change not applied)": "as the sequence (P55241 46-516) above", "assay": "Activation constant from initial rates with varied 3-PGA (0-1 mM) at 2 mM ATP and 2 mM G-1-P, pH 7.4, 15 mM MgCl2, fitted to V = Vmin + Vmax*X/(Ka + X).", "text": "as §1"}, "SH2-ISM/BT2-BF [2]": {"molecular_target": "T5, SH2-ISM/BT2-BF", "assay": "Initial-rate assay without 3-PGA, ATP and G-1-P both varied (0.01-10 mM and 0.1-25 mM), global fit to a sequential mechanism.", "details": "read-out: ATP Km (absence of 3-PGA)", "text": "(§2) Activity in the absence of the activator 3PGA was examined. While 3PGA is a noted activator for plant AGPase, the mechanism of activation differs for the various AGPases. […] Thus, the term “activation fold” in the literature is merely an activity reported at single fixed substrate concentrations.\n(§3) The small subunit mutant, MP, contains the first 198 amino acids of the small subunit of the maize endosperm enzyme and the last 277 amino acids from the potato tuber enzyme resulting in thirty-three amino acid sites that differ from the maize endosperm enzyme ([Cross et al., 2004])."}, "MP + SH2-E": {"system": "T8, MP + SH2-E", "T8 construct": "chimeric small subunit MP (maize 198 / potato 277 amino acids) with SH2-E", "assay": "Initial-rate assay without 3-PGA, ATP and G-1-P both varied (0.01-10 mM and 0.1-25 mM), global fit to a sequential mechanism.", "details": "read-out: ATP Km (absence of 3-PGA)", "text": "as §2, §3"}}, "note": "Where a chain is given by its changes, count along the chain named."}
{"smiles": "O=C(O)[C@H](O)COP(=O)(O)O", "note": "[3-PGA, 3-phosphoglycerate (3-phosphoglyceric acid)]", "values": [{"measurement": "3-PGA Ka (activation constant)", "setting": "SH2-E/BT2-BF", "result": "0.36 ± 0.09"}, {"measurement": "3-PGA Ka (activation constant)", "setting": "K403E", "result": "0.14 ± 0.015"}, {"measurement": "3-PGA Ka (activation constant)", "setting": "R331P", "result": "0.094 ± 0.013"}, {"measurement": "3-PGA Ka (activation constant)", "setting": "K403L", "result": "0.41 ± 0.049"}, {"measurement": "3-PGA Ka (activation constant)", "setting": "SH2-ISM/BT2-BF [1]", "result": "0.23 ± 0.11"}, {"measurement": "3-PGA Ka (activation constant)", "setting": "SH2-ISM", "result": "0.056 ± 0.008"}, {"measurement": "3-PGA Ka (activation constant)", "setting": "L404E", "result": "0.15 ± 0.014"}]}
{"smiles": "Nc1ncnc2c1ncn2[C@@H]1O[C@H](COP(=O)(O)OP(=O)(O)OP(=O)(O)O)[C@@H](O)[C@H]1O", "note": "[ATP, adenosine 5'-triphosphate]", "values": [{"measurement": "Km", "setting": "SH2-ISM/BT2-BF [2]", "result": "510 ± 100", "unit": "µM"}, {"measurement": "Km", "setting": "MP + SH2-E", "result": "320 ± 21", "unit": "µM"}]}
